In brackets after ≈: the same amount, converted by molar mass. Read-outs that look alike come from different tables or passages of the source.
Tests used:
Format in all cases: cell-based
K penumoniae H 523 = assay: Antibacterial activity (MIC) against MDR Gram negative strains
Procedure: (§1) The biological activity of representative compounds according to the invention against various bacterial strains was investigated. In a typical study, overnight grown bacterial cultures were diluted appropriately and inoculated on the agar media containing doubling dilutions of the test compounds. Observation for growth or no growth was performed after 16-20 hours of incubation at 35±2° C. in ambient air. The overall procedure was performed as per Clinical and Laboratory Standards Institute (CLSI) recommendations (Clinical and Laboratory Standards Institute (CLSI), Performance Standards for Antimicrobial Susceptibility Testing, 20th Informational Supplement, M 100-S20, Volume 30, No. 1, 2010).
(§2) The activities are expressed as MICs (mcg/ml).

P. aeruginosa ATCC 27853 = assay: as above; details: Pseudomonas aeruginosa, ATCC27853
Procedure: as §1, §2

K penumoniae H 521 = assay: as above
Procedure: as §1, §2

E. Coli H 484 = assay: as above; details: Escherichia coli
Procedure: as §1, §2

K penumoniae H 525 = assay: as above
Procedure: as §1, §2

E. Coli M 44 = assay: as above; details: Escherichia coli
Procedure: as §1, §2

E. Coli W 13351 = assay: as above; details: Escherichia coli
Procedure: as §1, §2

P. aeruginosa Ps 21 = assay: as above; details: Pseudomonas aeruginosa, PS21
Procedure: as §1, §2

E. Coli M 3 = assay: as above; details: Escherichia coli
Procedure: as §1, §2

E. Coli B 89 = assay: as above; details: Escherichia coli
Procedure: as §1, §2

K. penumoniae S 48 = assay: as above
Procedure: as §1, §2

P. aeruginosa Ps 32 = assay: as above; details: Pseudomonas aeruginosa, PS32
Procedure: as §1, §2

E. Coli W 13352 = assay: as above; details: Escherichia coli
Procedure: as §1, §2

E. Coli W 13353 = assay: as above; details: Escherichia coli
Procedure: as §1, §2

E. coli NCTC 13351 = assay: Antibacterial activity (MIC), agar dilution per CLSI; details: Escherichia coli, NCTC13351, Table 3, E. coli NCTC 13351 expressing ESBL, 16-20 hours, 35±2° C., read-out: MIC
Procedure: as §1
(§3) Table 3 details antibacterial activity of representative compounds according to the invention against various E. coli strains (NCTC 13351, M 50 and 7 MP) expressing ESBL (Extended Spectrum Beta Lactamases).

E. coli 7 MP = assay: as above; details: Escherichia coli, Table 3, E. coli 7 MP expressing ESBL, read-out: MIC
Procedure: as §1, §3

E. coli M 50 = assay: as above; details: Escherichia coli
Procedure: as §1, §2

[1] = Table 4, K penumoniae H 523, KPC ESBL, MDR, read-out: MIC
[2] = Table 5, P. aeruginosa ATCC 27853, read-out: MIC
[3] = Table 4, K penumoniae H 521, KPC ESBL, MDR, read-out: MIC
[4] = Table 4, E. Coli H 484, Class C ESBL, MDR, read-out: MIC
[5] = Table 4, K penumoniae H 525, KPC ESBL, MDR, read-out: MIC
[6] = Table 5, E. Coli M 44, Class B ESBL, MDR, read-out: MIC
[7] = Table 4, E. Coli W 13351, Class A ESBL, MDR, read-out: MIC
[8] = Table 5, P. aeruginosa Ps 21, read-out: MIC
[9] = Table 5, E. Coli M 3, Class B ESBL, MDR, read-out: MIC
[10] = Table 4, E. Coli B 89, Class C ESBL, MDR, read-out: MIC
[11] = Table 5, K. penumoniae S 48, Class B ESBL, MDR, read-out: MIC
[12] = Table 5, P. aeruginosa Ps 32, read-out: MIC
[13] = Table 4, E. Coli W 13352, Class A ESBL, MDR, read-out: MIC
[14] = Table 4, E. Coli W 13353, Class A ESBL, MDR, read-out: MIC
[15] = M50, Table 3, E. coli M 50 expressing ESBL, agar dilution, read-out: MIC
[16] = M50, Table 4, E. Coli M 50, Class C ESBL, MDR, read-out: MIC

| SMILES | MIC (K penumoniae H 523; [1]) [µg/mL] | MIC (P. aeruginosa ATCC 27853; [2]) [µg/mL] | MIC (K penumoniae H 521; [3]) [µg/mL] | MIC (E. Coli H 484; [4]) [µg/mL] | MIC (K penumoniae H 525; [5]) [µg/mL] | MIC (E. Coli M 44; [6]) [µg/mL] | MIC (E. Coli W 13351; [7]) [µg/mL] | MIC (P. aeruginosa Ps 21; [8]) [µg/mL] | MIC (E. Coli M 3; [9]) [µg/mL] | MIC (E. Coli B 89; [10]) [µg/mL] | MIC (K. penumoniae S 48; [11]) [µg/mL] | MIC (P. aeruginosa Ps 32; [12]) [µg/mL] | MIC (E. Coli W 13352; [13]) [µg/mL] | MIC (E. Coli W 13353; [14]) [µg/mL] | MIC (E. coli NCTC 13351) [µg/mL] | MIC (E. coli 7 MP) [µg/mL] | MIC (E. coli M 50; [15]) [µg/mL] | MIC (E. coli M 50; [16]) [µg/mL] | other results |
| --- | --- | --- | --- | --- | --- | --- | --- | --- | --- | --- | --- | --- | --- | --- | --- | --- | --- | --- | --- |
| O=C(NNC(=O)[C@H]1CC[C@@H]2CN1C(=O)N2OS(=O)(=O)O)[C@@H]1C[C@H](F)CN1 (mixture of isomers) [Example 11, trans-sulfuric acid mono-[2-(N′-[(2S,4S)-4-fluoro-pyrrolidin-2-carbonyl]-hydrazinocarbonyl)-7-oxo-1,6-diaza-bicyclo[3.2.1]oct-6-yl]ester] | 2 | > 32 | 4 | 16 | 2 | 1 | 2 | > 32 | 8 | 2 | 2 | > 32 | 2 | 2 | 2 | 4 | 1 | 2 | – |
| O=C(NNC(=O)[C@H]1CC[C@@H]2CN1C(=O)N2OS(=O)(=O)O)[C@@H]1CCCCN1 (mixture of isomers) [Example 17, trans-sulfuric acid mono-[2-(N′—((S)-piperidin-2-carbonyl)-hydrazinocarbonyl)-7-oxo-1,6-diaza-bicyclo[3.2.1]oct-6-yl]ester] | 0.5 | > 32 | 0.5 | 4 | 0.5 | 0.5 | 0.5 | > 32 | 0.5 | 0.5 | 0.5 | > 32 | 0.5 | 0.25 | 0.5 | 2 | 0.5 | 0.5 | – |
| O=C(NNC(=O)[C@H]1CCCN1)[C@H]1CC[C@@H]2CN1C(=O)N2OS(=O)(=O)O (mixture of isomers) [Example 30, trans-sulfuric acid mono-[2-(N′—[(R)-pyrrolidin-2-carbonyl]-hydrazinocarbonyl)-7-oxo-1,6-diaza-bicyclo[3.2.1]oct-6-yl]ester] | 8 | > 32 | 8 | 8 | > 32 | 16 | 16 | > 32 | 8 | 8 | > 32 | > 32 | 16 | 8 | 16 | 32 | 8 | 8 | – |
| N[C@@H]1CN[C@H](C(=O)NNC(=O)[C@H]2CC[C@@H]3CN2C(=O)N3OS(=O)(=O)O)C1 (mixture of isomers) [Example 35, trans-sulfuric acid mono-[2-(N′-[(2S,4S)-4-amino-pyrrolidin-2-carbonyl]-hydrazinocarbonyl)-7-oxo-1,6-diaza-bicyclo[3.2.1]oct-6-yl]ester] | 1 | > 32 | 2 | 1 | 1 | 2 | 1 | > 32 | 1 | 1 | 2 | 32 | 1 | 1 | 1 | 4 | 1 | 1 | – |
| O=C(NNC(=O)[C@H]1CC[C@@H]2CN1C(=O)N2OS(=O)(=O)O)C1CCCNC1 (mixture of isomers) [Example 14, trans-sulfuric acid mono-[2-(N′—((RS)-piperidin-3-carbonyl)-hydrazinocarbonyl)-7-oxo-1,6-diaza-bicyclo[3.2.1]oct-6-yl]ester] | 0.25 (≈ 0.639 µM) | 8 (≈ 20.4 µM) | 0.5 (≈ 1.28 µM) | 2 (≈ 5.11 µM) | 0.25 (≈ 0.639 µM) | 0.25 (≈ 0.639 µM) | 0.5 (≈ 1.28 µM) | 16 (≈ 40.9 µM) | 0.5 (≈ 1.28 µM) | 0.5 (≈ 1.28 µM) | 4 (≈ 10.2 µM) | 8 (≈ 20.4 µM) | 0.5 (≈ 1.28 µM) | 0.5 (≈ 1.28 µM) | 0.5 (≈ 1.28 µM) | 2 (≈ 5.11 µM) | 0.25 (≈ 0.639 µM) | 0.5 (≈ 1.28 µM) | – |
| O=C(NNC(=O)[C@H]1CC[C@@H]2CN1C(=O)N2OS(=O)(=O)O)C1CNCCN1 (mixture of isomers) [Example 38, trans-sulfuric acid mono-[2-(N′—((RS)-piperazin-2-carbonyl)-hydrazinocarbonyl)-7-oxo-1,6-diaza-bicyclo[3.2.1]oct-6-yl]ester] | 2 (≈ 5.1 µM) | > 32 | 2 (≈ 5.1 µM) | 8 (≈ 20.4 µM) | 2 (≈ 5.1 µM) | 4 (≈ 10.2 µM) | 4 (≈ 10.2 µM) | > 32 | 1 (≈ 2.55 µM) | 2 (≈ 5.1 µM) | 4 (≈ 10.2 µM) | > 32 | 4 (≈ 10.2 µM) | 2 (≈ 5.1 µM) | 4 (≈ 10.2 µM) | 8 (≈ 20.4 µM) | 2 (≈ 5.1 µM) | 2 (≈ 5.1 µM) | – |
| NCC(=O)NNC(=O)[C@H]1CC[C@@H]2CN1C(=O)N2OS(=O)(=O)O (relative stereo) [Example 7, trans-sulfuric acid mono-[2-(N′-(amino-acetyl)-hydrazinocarbonyl)-7-oxo-1,6-diaza-bicyclo[3.2.1]oct-6-yl]ester] | 1 (≈ 2.96 µM) | > 32 | 2 (≈ 5.93 µM) | 4 (≈ 11.9 µM) | 2 (≈ 5.93 µM) | 2 (≈ 5.93 µM) | 2 (≈ 5.93 µM) | > 32 | 4 (≈ 11.9 µM) | 4 (≈ 11.9 µM) | 4 (≈ 11.9 µM) | > 32 | 1 (≈ 2.96 µM) | 0.5 (≈ 1.48 µM) | 2 (≈ 5.93 µM) | 4 (≈ 11.9 µM) | 2 (≈ 5.93 µM) | 2 (≈ 5.93 µM) | – |
| C[C@H]1[C@H](NC(=O)/C(=N\OC(C)(C)C(=O)O)c2csc(N)n2)C(=O)N1S(=O)(=O)O [Aztreonam, reference compound] | > 32 | 2 (≈ 4.59 µM) | > 32 | > 32 | > 32 | > 32 | > 32 | 8 (≈ 18.4 µM) | > 32 | > 32 | > 32 | 8 (≈ 18.4 µM) | > 32 | > 32 | – | – | – | > 32 | – |
| C[C@@H](O)[C@H]1C(=O)N2C(C(=O)O)=C(SCCN=CN)C[C@H]12 [Imipenem, reference compound] | 16 (≈ 53.4 µM) | 4 (≈ 13.4 µM) | 16 (≈ 53.4 µM) | 4 (≈ 13.4 µM) | 16 (≈ 53.4 µM) | 32 (≈ 107 µM) | 0.25 (≈ 0.835 µM) | > 32 | 8 (≈ 26.7 µM) | 0.5 (≈ 1.67 µM) | 16 (≈ 53.4 µM) | > 32 | 0.25 (≈ 0.835 µM) | 0.25 (≈ 0.835 µM) | – | – | – | 0.5 (≈ 1.67 µM) | – |
| CN(C)c1cc(NC(=O)CNC(C)(C)C)c(O)c2c1C[C@H]1C[C@H]3[C@H](N(C)C)C(O)=C(C(N)=O)C(=O)[C@@]3(O)C(O)=C1C2=O [Tigecyclin, Tigecycline, reference compound] | – | – | – | – | – | – | – | – | – | – | – | – | – | – | – | – | – | – | MIC (K penumoniae H 523): 8 µg/mL (≈ 13.7 µM); MIC (P. aeruginosa ATCC 27853): 16 µg/mL (≈ 27.3 µM); MIC (K penumoniae H 521): 2 µg/mL (≈ 3.41 µM); MIC (E. Coli H 484): 0.25 µg/mL (≈ 0.427 µM); MIC (K penumoniae H 525): 2 µg/mL (≈ 3.41 µM); MIC (E. Coli M 44): 0.25 µg/mL (≈ 0.427 µM); MIC (E. Coli W 13351): 1 µg/mL (≈ 1.71 µM); MIC (P. aeruginosa Ps 21): 16 µg/mL (≈ 27.3 µM); MIC (E. Coli M 3): 4 µg/mL (≈ 6.83 µM); MIC (E. Coli B 89): 0.5 µg/mL (≈ 0.854 µM); MIC (K. penumoniae S 48): 1 µg/mL (≈ 1.71 µM); MIC (P. aeruginosa Ps 32): 16 µg/mL (≈ 27.3 µM); MIC (E. Coli W 13352): 0.25 µg/mL (≈ 0.427 µM); MIC (E. Coli W 13353): 1 µg/mL (≈ 1.71 µM); MIC (E. coli M 50; M50): 0.5 µg/mL (≈ 0.854 µM) |

Reference: US9381200B2, “Nitrogen containing compounds” (WOCKHARDT LIMITED, priority 2011, dated 2016)
